Results reported in PMC4619705 (PLoS ONE, 2015).
pEC50: −log10 of the molar value. Values joined by “and” are separate entries in the source; they are usually repeats but may differ in a detail not shown here. Equal values may be shown once. “Also recorded” adds a separate entry of the source. Values belong to the compound of their own block, whether it stands above or below them.

Assays:
β3γ2L GABAARs = target: T1, β3γ2L GABAARs (Homo sapiens, UniProt P18507+P28472); assay: Two-electrode voltage clamp of β3γ2L GABAARs expressed at various β3:γ2L mRNA ratios in Xenopus oocytes; assay type: cell-based; settings: for Expression level (current response elicited by GABA): 3 mM GABA; for Frac (95% CI), proportion of maximal response mediated by the more potent component / n H_1 (Hill slope) / n H_2 (Hill slope): biphasic fit; for n H_1 (Hill slope) / n H_2 (Hill slope): Hill slopes constrained to 1; for pEC50: EC50 (95% CI) of direct activation; for pEC50 / E max ± SEM (300 μM 2’MeO6MF-elicited current normalised against 3 mM GABA response) / n H ± SEM (Hill slope) of direct activation: -60 mV; for 2’MeO6MF activity: 100 μM; for Enhancement of GABA current (co-application): GABA EC3–10 + 100 or 300 μM ligand, data not shown
T1 construct: expressed in transfected cells; host or cells: Xenopus laevis oocytes injected with β3 and γ2L mRNAs at 1:1 to 1:100
T1 sequence (P28472 26-473): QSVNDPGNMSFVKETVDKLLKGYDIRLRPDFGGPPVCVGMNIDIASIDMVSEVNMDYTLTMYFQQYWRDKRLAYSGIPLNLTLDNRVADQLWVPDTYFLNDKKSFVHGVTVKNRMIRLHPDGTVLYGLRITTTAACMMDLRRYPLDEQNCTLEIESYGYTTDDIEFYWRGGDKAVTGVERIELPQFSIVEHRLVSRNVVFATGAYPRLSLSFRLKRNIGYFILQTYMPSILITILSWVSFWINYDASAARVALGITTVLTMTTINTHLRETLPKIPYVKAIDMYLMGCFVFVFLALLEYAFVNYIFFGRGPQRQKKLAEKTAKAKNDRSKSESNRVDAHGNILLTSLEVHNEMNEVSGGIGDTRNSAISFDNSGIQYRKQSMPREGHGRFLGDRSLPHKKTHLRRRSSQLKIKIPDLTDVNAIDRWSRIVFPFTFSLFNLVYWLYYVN
T1 sequence (P18507 40-475): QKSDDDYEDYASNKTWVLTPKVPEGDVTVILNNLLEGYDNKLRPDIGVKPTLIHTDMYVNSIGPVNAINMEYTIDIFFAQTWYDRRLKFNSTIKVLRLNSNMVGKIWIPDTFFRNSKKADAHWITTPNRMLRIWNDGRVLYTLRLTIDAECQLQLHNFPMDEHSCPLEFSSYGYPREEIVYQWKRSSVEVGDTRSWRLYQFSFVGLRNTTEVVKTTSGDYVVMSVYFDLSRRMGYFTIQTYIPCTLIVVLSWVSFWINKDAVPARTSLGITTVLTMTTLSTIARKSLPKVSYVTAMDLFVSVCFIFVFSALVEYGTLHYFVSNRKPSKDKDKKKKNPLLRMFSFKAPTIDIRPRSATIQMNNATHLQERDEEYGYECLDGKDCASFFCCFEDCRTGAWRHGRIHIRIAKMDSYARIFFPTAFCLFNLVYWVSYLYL
Source text: (§1) Human complementary DNA (cDNA) of GABAAR α2 subunit (vector: pCMV6-XL5) was purchased from OriGene Technologies (Rockville, MD, USA), and the human β3 (vector: pGEMHE) and γ2L (vector: pCDM8) subunits were generous gifts from Dr. Bjarke Ebert (H. Lundbeck A/S, Valby, Denmark) and Dr. Paul Whiting (Merck, Sharp and Dohme Research Laboratories, Harlow, Essex, UK) respectively. […] Plasmid vectors with the cDNA incorporated were linearised using appropriate restriction endonucleases (α2: SmaI; β3: NheI; γ2L: NotI). Capped RNA transcripts were synthesised from linearised plasmids using the mMessage mMachine T7 transcript kit from Ambion (Austin, TX, USA). Purified messenger RNA (mRNA) was dissolved in nuclease-free water (Ambion, Austin, TX, USA), and its quality was assessed using 1% agarose gel electrophoresis. The concentration of each subunit mRNA was measured using Nanodrop ND-100 UV-Vis spectrophotometer (Thermo Fisher Scientific, North Ryde, NSW, Australia).
Various combinations of α2, β3 and γ2L subunit mRNAs were mixed to different ratios as stated in the text, and diluted accordingly to a concentration of 5 ng/μL (unless otherwise stated). […] Injected oocytes were stored in ND96 storage solution supplemented with 50 μg/mL gentamycin and tetracycline at 18°C. Two-electrode voltage clamp recordings were performed on oocytes 2–4 days post-injection at room temperature (20–25°C) using a GeneClamp 500B amplifier (ADInstruments, Sydney, NSW, Australia) or a Warner OC-725C Oocyte Clamp (Warner Instrument Corp, Hamden, CT, USA). […] The recording microelectrodes (0.2–1.1 MΩ) were generated from capillary glass (Harvard Apparatus, Holliston, MA, USA) using a single-stage glass microelectrode puller (Narishige, Tokyo, Japan), and were filled with 3 M KCl solution. The perfusion system was built using a series of polycarbonate, high-density polyethylene two-way stopcocks (Qosina, Edgewood, NY, USA), connected through tubing to the recording chamber (100 μL), where the oocyte was continuously perfused with ND96 recording solution (96 mM NaCl, 2 mM KCl, 1 mM MgCl2, 1.8 mM CaCl2, 5 mM HEPES hemisodium; pH 7.4) at an approximate rate of 5 mL/min.
Perfusates containing these chemicals were made up fresh before each application. The concentration-response curves of agonists were obtained by exposing oocytes to increasing concentrations of agonists until the currents peaked. […] All experiments were performed using at least two different batches of oocytes.
Prism (version 5.04; GraphPad Software, La Jolla, CA, USA) was used for data analysis.
In all cases, we constrained the bottom to 0, and when fitting data to the biphasic model, the Hill slopes were constrained to 1. Statistical comparisons of results for different injection ratios of β3γ2L receptors were performed using ANOVA with Tukey’s post-hoc test. When comparing results from different injection ratios of β3γ2L receptors with α2β3γ2L receptors, the ANOVA Dunnett’s test was used. Pairwise comparisons were performed using Student’s t test. Statistical significance was attained at p < 0.05.

homomeric α2 GABAARs = target: T2, homomeric α2 GABAARs (Homo sapiens, UniProt P47869); assay: Two-electrode voltage clamp of oocytes injected with α2 mRNA alone; assay type: cell-based
T2 construct: expressed in transfected cells; host or cells: Xenopus laevis oocytes injected with α2 mRNA alone (28–35 ng/oocyte)
T2 sequence (P47869 29-451): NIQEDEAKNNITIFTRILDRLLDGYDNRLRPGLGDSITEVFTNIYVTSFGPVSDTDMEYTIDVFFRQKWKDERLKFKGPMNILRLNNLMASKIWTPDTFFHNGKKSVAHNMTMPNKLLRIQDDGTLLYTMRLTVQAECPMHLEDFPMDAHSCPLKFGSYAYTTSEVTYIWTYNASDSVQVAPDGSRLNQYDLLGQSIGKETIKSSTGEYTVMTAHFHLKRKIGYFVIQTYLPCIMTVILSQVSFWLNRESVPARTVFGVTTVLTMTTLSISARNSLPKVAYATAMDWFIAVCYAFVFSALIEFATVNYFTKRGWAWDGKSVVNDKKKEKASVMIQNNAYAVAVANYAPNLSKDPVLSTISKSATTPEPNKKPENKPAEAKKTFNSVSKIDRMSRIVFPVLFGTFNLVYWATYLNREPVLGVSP
Source text: as §1
Various combinations of α2, β3 and γ2L subunit mRNAs were mixed to different ratios as stated in the text, and diluted accordingly to a concentration of 5 ng/μL (unless otherwise stated). […] Injected oocytes were stored in ND96 storage solution supplemented with 50 μg/mL gentamycin and tetracycline at 18°C. […]

- Expression level (current response elicited by GABA) (β3γ2L GABAARs; β3γ2L 1:1): 110 ± 34 nA
- Expression level (current response elicited by GABA) (β3γ2L GABAARs; β3γ2L 1:5): 270 ± 80 nA
- Expression level (current response elicited by GABA) (β3γ2L GABAARs; β3γ2L 1:10): 310 ± 61 nA
- I max ± SEM (current amplitude elicited by 30 mM GABA) (β3γ2L GABAARs; β3γ2L 1:15): 780 ± 220 nA
- Expression level (current response elicited by GABA) (β3γ2L GABAARs; β3γ2L 1:15): 490 ± 47 nA
- n H_1 ± SEM (Hill slope) (β3γ2L GABAARs; β3γ2L 1:15, monophasic fit): 0.54 and 0.54 ± 0.040
- Expression level (current response elicited by GABA) (β3γ2L GABAARs; β3γ2L 1:20): 860 ± 87 nA
- I max ± SEM (current amplitude elicited by 30 mM GABA) (β3γ2L GABAARs; β3γ2L 1:50): 1000 ± 250 nA
- Expression level (current response elicited by GABA) (β3γ2L GABAARs; β3γ2L 1:50): 1000 ± 160 nA
- Frac (95% CI), proportion of maximal response mediated by the more potent component (β3γ2L GABAARs; β3γ2L 1:50): 0.74 (0.67–0.80)
- n H_1 (Hill slope) (β3γ2L GABAARs; β3γ2L 1:50): 1.0
- n H_2 (Hill slope) (β3γ2L GABAARs; β3γ2L 1:50): 1.0
- I max ± SEM (current amplitude elicited by 30 mM GABA) (β3γ2L GABAARs; β3γ2L 1:100): 1000 ± 97 nA
- Expression level (current response elicited by GABA) (β3γ2L GABAARs; β3γ2L 1:100): 1100 ± 100 nA
- Frac (95% CI), proportion of maximal response mediated by the more potent component (β3γ2L GABAARs; β3γ2L 1:100): 0.71 (0.65–0.77)
- n H_1 (Hill slope) (β3γ2L GABAARs; β3γ2L 1:100): 1.0
- n H_2 (Hill slope) (β3γ2L GABAARs; β3γ2L 1:100): 1.0
Compound: NCCCC(=O)O [GABA, γ-aminobutyric acid]
- Expression level (current response elicited by GABA) (homomeric α2 GABAARs; 28–35 ng mRNA/oocyte, 60 mM GABA, -60 mV): did not detect function; also recorded: No current

Compound: COc1ccccc1-c1cc(=O)c2cc(C)ccc2o1 [2’MeO6MF, 2’-methoxy-6-methylflavone]
- pEC50 (β3γ2L GABAARs; β3γ2L 1:15): 4.35
- pEC50 (β3γ2L GABAARs; β3γ2L 1:50): 4.21
- pEC50 (β3γ2L GABAARs; β3γ2L 1:100): 4.20
- 2’MeO6MF activity (β3γ2L GABAARs; β3γ2L 1:1): inhibited the constitutive activity; also recorded: inverse agonist; also recorded: Inverse agonism
- 2’MeO6MF activity (β3γ2L GABAARs; β3γ2L 1:5): mixed agonist and inverse agonist activity; also recorded: mixed inverse agonist and agonist effect; also recorded: Inverse agonism/activation
- 2’MeO6MF activity (β3γ2L GABAARs; β3γ2L 1:10): mixed agonist and inverse agonist activity; also recorded: mixed inverse agonist and agonist effect; also recorded: Inverse agonism/activation
- 2’MeO6MF activity (β3γ2L GABAARs; β3γ2L 1:15): directly activated receptors expressed efficaciously; also recorded: Activation
- Elicited current, % of the 3 mM GABA responses (mean ± SEM) (β3γ2L GABAARs; β3γ2L 1:15, 100 μM ligand): 87 ± 4.5%
- E max ± SEM (300 μM 2’MeO6MF-elicited current normalised against 3 mM GABA response) (β3γ2L GABAARs; β3γ2L 1:15): 1.2 ± 0.10
- n H ± SEM (Hill slope) of direct activation (β3γ2L GABAARs; β3γ2L 1:15): 1.8 ± 0.42
- Enhancement of GABA current (co-application) (β3γ2L GABAARs; β3γ2L 1:15): No enhancement
- 2’MeO6MF activity (β3γ2L GABAARs; β3γ2L 1:20): variable efficacy; also recorded: Activation
- Elicited current, % of the 3 mM GABA responses (mean ± SEM) (β3γ2L GABAARs; β3γ2L 1:20, 100 μM ligand): approximately 34 ± 4.0%
- Relative efficacy, range across oocytes, % of the 3 mM GABA responses (β3γ2L GABAARs; β3γ2L 1:20, 100 μM ligand): 1.0 to 120%
- 2’MeO6MF activity (β3γ2L GABAARs; β3γ2L 1:50): activation with low efficacy
- Elicited current, % of the 3 mM GABA responses (mean ± SEM) (β3γ2L GABAARs; β3γ2L 1:50, 100 μM ligand): around 6.7 ± 1.2%
- E max ± SEM (300 μM 2’MeO6MF-elicited current normalised against 3 mM GABA response) (β3γ2L GABAARs; β3γ2L 1:50): 0.086 ± 0.018
- n H ± SEM (Hill slope) of direct activation (β3γ2L GABAARs; β3γ2L 1:50): 1.4 ± 0.88
- 2’MeO6MF activity (β3γ2L GABAARs; β3γ2L 1:100): activation with low efficacy
- Elicited current, % of the 3 mM GABA responses (mean ± SEM) (β3γ2L GABAARs; β3γ2L 1:100, 100 μM ligand): ~5.1 ± 0.72%
- E max ± SEM (300 μM 2’MeO6MF-elicited current normalised against 3 mM GABA response) (β3γ2L GABAARs; β3γ2L 1:100): 0.10 ± 0.020
- n H ± SEM (Hill slope) of direct activation (β3γ2L GABAARs; β3γ2L 1:100): 1.6 ± 0.76
- Enhancement of GABA current (co-application) (β3γ2L GABAARs; β3γ2L 1:100): No enhancement
- 2’MeO6MF activity (homomeric α2 GABAARs; 100 μM): did not detect function; also recorded: No current
